Assay results taken from patent US11753445B2, “Therapeutic peptides” (COHBAR, INC., priority 2016, dated 2023).
Peptide text beside a SMILES is read from it.

Test system: 3T3-L1 Adipocytes
Assay: Free fatty acid levels in cultured mouse 3T3-L1 adipocytes, isoproterenol stimulated (Example 2)
Type: cell-based
Settings: test peptides 25 μM; isoproterenol 1 nM
Outline: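 3T3-L1 cells differentiated 12–17 days into adipocytes, then exposed to test peptides at 25 μM final for 18–20 h, then 1 h, then 3 h with isoproterenol (1 nM) at 37 °C. Free fatty acids in the medium measured colorimetrically at 540 nm, corrected for untreated background and expressed relative to isoproterenol-only cells.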

Row | Molecule | Free Fatty Acid Levels in 3T3-L1 Adipocytes Expressed as a Percent of Isoproterenol Control: Percent of Control Value [%]
1 | CC[C@H](C)[C@H](NC(=O)[C@H](Cc1ccc(O)cc1)NC(=O)CNC(=O)[C@H](CCC(=O)O)NC(=O)[C@H](CCC(=O)O)NC(=O)[C@H](CCC(N)=O)NC(=O)[C@H](Cc1c[nH]c2ccccc12)NC(=O)[C@H](CCCNC(=N)N)NC(=O)[C@@H](C)N)C(=O)N[C@@H](Cc1ccccc1)C(=O)N[C@@H](Cc1ccc(O)cc1)C(=O)N1CCC[C@H]1C(=O)N[C@@H](CCCNC(=N)N)C(=O)N[C@@H](CCCCN)C(=O)N[C@@H](CC(C)C)C(=O)N[C@H](C)C(=O)O [compound 231] (HELM PEPTIDE1{[dA].R.W.Q.E.E.G.Y.I.F.Y.P.R.K.L.[dA]}$$$$V2.0) | 61.6
2 | CC[C@H](C)[C@@H]1NC(=O)[C@H](Cc2ccc(O)cc2)NC(=O)CNC(=O)[C@H](CCSC)NC(=O)[C@@H](NC(=O)[C@H](CCC(N)=O)NC(=O)[C@H](Cc2c[nH]c3ccccc23)NC(=O)[C@H](CCCNC(=N)N)NC(=O)[C@@H](N)CCSC)CCC(=O)NCCCC[C@@H](C(=O)N[C@@H](CCCNC(=N)N)C(=O)N[C@@H](CCCCN)C(=O)N[C@@H](CC(C)C)C(=O)N[C@@H](CCCNC(=N)N)C(=O)O)NC(=O)[C@H](Cc2ccc(O)cc2)NC(=O)[C@H](Cc2ccccc2)NC1=O [compound 224] (HELM PEPTIDE1{M.R.W.Q.E.M.G.Y.I.F.Y.K.R.K.L.R}$PEPTIDE1,PEPTIDE1,5:R3-12:R3$$$V2.0) | 56.2
3 | CC[C@H](C)[C@H](NC(=O)[C@H](Cc1ccc(O)cc1)NC(=O)CNC(=O)[C@H](CCSC)NC(=O)[C@H](CCC(=O)O)NC(=O)[C@H](CCC(N)=O)NC(=O)[C@H](Cc1c[nH]c2ccccc12)NC(=O)[C@H](CCCNC(=N)N)NC(=O)[C@@H](C)NC(C)=O)C(=O)N[C@@H](Cc1ccccc1)C(=O)N[C@@H](Cc1ccc(O)cc1)C(=O)N1CCC[C@H]1C(=O)N[C@@H](CCCNC(=N)N)C(=O)N[C@@H](CCCCN)C(=O)N[C@@H](CC(C)C)C(=O)N[C@@H](CCCNC(=N)N)C(N)=O [compound 152] (HELM PEPTIDE1{[ac].[dA].R.W.Q.E.M.G.Y.I.F.Y.P.R.K.L.R.[am]}$$$$V2.0) | 81.9
4 | Ac-MREQEMGYIFYPRKLR-NH2 [compound 185] | 77.0
5 | Ac-MRWQEMEYIFYPRKLR-NH2 [compound 188] | 86.5
6 | Ac-MRWQEMGYIEYPRKLR-NH2 [compound 191] | 81.7
7 | Ac-MRWQEMGYIFYERKLR-NH2 [compound 193] | 71.2
8 | Ac-MRWQEMGYIFYPRKER-NH2 [compound 196] | 80.5
9 | CC[C@H](C)[C@H](NC(=O)[C@H](Cc1ccc(O)cc1)NC(=O)CNC(=O)[C@H](CCC(=O)O)NC(=O)[C@H](CCC(=O)O)NC(=O)[C@H](CCC(N)=O)NC(=O)[C@H](Cc1c[nH]c2ccccc12)NC(=O)[C@H](CCCNC(=N)N)NC(=O)[C@@H](C)N)C(=O)N[C@@H](C)C(=O)N[C@@H](Cc1ccc(O)cc1)C(=O)N1CCC[C@H]1C(=O)N[C@@H](CCCNC(=N)N)C(=O)N[C@@H](CCCCN)C(=O)N[C@@H](CC(C)C)C(=O)N[C@H](C)C(=O)O [compound 237] (HELM PEPTIDE1{[dA].R.W.Q.E.E.G.Y.I.A.Y.P.R.K.L.[dA]}$$$$V2.0) | 85.6
10 | CC[C@H](C)[C@H](NC(=O)[C@H](Cc1ccc(O)cc1)NC(=O)CNC(=O)[C@H](CCSC)NC(=O)[C@H](CCC(=O)O)NC(=O)[C@H](CCC(N)=O)NC(=O)[C@H](Cc1c[nH]c2ccccc12)NC(=O)[C@@H](C)NC(=O)[C@@H](N)CCSC)C(=O)N[C@@H](Cc1ccccc1)C(=O)N[C@@H](Cc1ccc(O)cc1)C(=O)N1CCC[C@H]1C(=O)N[C@@H](CCCNC(=N)N)C(=O)N[C@@H](CCCCN)C(=O)N[C@@H](CC(C)C)C(=O)N[C@@H](CCCNC(=N)N)C(=O)O [compound 137] (HELM PEPTIDE1{M.[dA].W.Q.E.M.G.Y.I.F.Y.P.R.K.L.R}$$$$V2.0) | 91.4
11 | H-MRWQEMGYIFY-OH [compound 49] | 103.3
12 | Ac-MRWQEMGYIFY-NH2 [compound 63] | 70.5
13 | CC[C@H](C)[C@H](NC(=O)[C@H](Cc1ccc(O)cc1)NC(=O)CNC(=O)[C@H](C)NC(=O)[C@H](CCC(=O)O)NC(=O)[C@H](CCC(N)=O)NC(=O)[C@H](Cc1c[nH]c2ccccc12)NC(=O)[C@H](CCCNC(=N)N)NC(=O)[C@@H](C)N)C(=O)N[C@@H](Cc1ccccc1)C(=O)N[C@@H](CCC(=O)O)C(=O)N1CCC[C@H]1C(=O)N[C@@H](CCCNC(=N)N)C(=O)N[C@@H](CCCCN)C(=O)N[C@@H](CC(C)C)C(=O)N[C@@H](C)C(=O)O [compound 242] (HELM PEPTIDE1{[dA].R.W.Q.E.A.G.Y.I.F.E.P.R.K.L.A}$$$$V2.0) | 64.9
14 | Ac-MRWQEEGYIFYPRKLR-NH2 [compound 187] | 98.9
15 | CC[C@H](C)[C@H](NC(=O)[C@H](Cc1ccc(O)cc1)NC(=O)CNC(=O)[C@H](CCSC)NC(=O)[C@H](CCC(=O)O)NC(=O)[C@H](CCC(N)=O)NC(=O)[C@H](Cc1c[nH]c2ccccc12)NC(=O)[C@H](CCCNC(=N)N)NC(=O)[C@@H](C)N)C(=O)N[C@@H](Cc1ccccc1)C(=O)N[C@@H](Cc1ccc(O)cc1)C(=O)N1CCC[C@H]1C(=O)N[C@@H](CCCNC(=N)N)C(=O)N[C@@H](CCCCN)C(=O)N[C@@H](CC(C)C)C(=O)N[C@@H](CCCNC(=N)N)C(=O)O [compound 136] (HELM PEPTIDE1{[dA].R.W.Q.E.M.G.Y.I.F.Y.P.R.K.L.R}$$$$V2.0) | 44.2
16 | CC[C@H](C)[C@H](NC(=O)[C@H](Cc1ccc(O)cc1)NC(=O)CNC(=O)[C@@H](C)NC(=O)[C@H](CCC(=O)O)NC(=O)[C@H](CCC(N)=O)NC(=O)[C@H](Cc1c[nH]c2ccccc12)NC(=O)[C@H](CCCNC(=N)N)NC(=O)[C@@H](N)CCSC)C(=O)N[C@@H](Cc1ccccc1)C(=O)N[C@@H](Cc1ccc(O)cc1)C(=O)N1CCC[C@H]1C(=O)N[C@@H](CCCNC(=N)N)C(=O)N[C@@H](CCCCN)C(=O)N[C@@H](CC(C)C)C(=O)N[C@@H](CCCNC(=N)N)C(=O)O [compound 141] (HELM PEPTIDE1{M.R.W.Q.E.[dA].G.Y.I.F.Y.P.R.K.L.R}$$$$V2.0) | 56.9
17 | CC[C@H](C)[C@H](NC(=O)[C@@H](C)NC(=O)CNC(=O)[C@H](CCSC)NC(=O)[C@H](CCC(=O)O)NC(=O)[C@H](CCC(N)=O)NC(=O)[C@H](Cc1c[nH]c2ccccc12)NC(=O)[C@H](CCCNC(=N)N)NC(=O)[C@@H](N)CCSC)C(=O)N[C@@H](Cc1ccccc1)C(=O)N[C@@H](Cc1ccc(O)cc1)C(=O)N1CCC[C@H]1C(=O)N[C@@H](CCCNC(=N)N)C(=O)N[C@@H](CCCCN)C(=O)N[C@@H](CC(C)C)C(=O)N[C@@H](CCCNC(=N)N)C(=O)O [compound 143] (HELM PEPTIDE1{M.R.W.Q.E.M.G.[dA].I.F.Y.P.R.K.L.R}$$$$V2.0) | 64.5
18 | H-MRWQEMGYIFYPRKER-OH [compound 181] | 58.9
19 | CC[C@H](C)[C@H](NC(=O)[C@H](Cc1ccc(O)cc1)NC(=O)CNC(=O)[C@H](CCSC)NC(=O)[C@H](CCC(=O)O)NC(=O)[C@H](CCC(N)=O)NC(=O)[C@H](Cc1c[nH]c2ccccc12)NC(=O)[C@H](CCCNC(=N)N)NC(=O)[C@@H](N)CCSC)C(=O)N[C@@H](Cc1ccccc1)C(=O)N[C@@H](Cc1ccc(O)cc1)C(=O)N1CCC[C@H]1C(=O)N[C@H](C)C(=O)N[C@@H](CCCCN)C(=O)N[C@@H](CC(C)C)C(=O)N[C@@H](CCCNC(=N)N)C(=O)O [compound 148] (HELM PEPTIDE1{M.R.W.Q.E.M.G.Y.I.F.Y.P.[dA].K.L.R}$$$$V2.0) | 25.0
20 | CC[C@H](C)[C@H](NC(=O)[C@H](Cc1ccc(O)cc1)NC(=O)CNC(=O)[C@H](C)NC(=O)[C@H](CCC(=O)O)NC(=O)[C@H](CCC(N)=O)NC(=O)[C@H](Cc1c[nH]c2ccccc12)NC(=O)[C@H](CCCNC(=N)N)NC(=O)[C@@H](C)N)C(=O)N[C@@H](Cc1ccccc1)C(=O)N[C@@H](CCC(=O)O)C(=O)N1CCC[C@H]1C(=O)N[C@@H](CCCNC(=N)N)C(=O)N[C@@H](CCCCN)C(=O)N[C@@H](CC(C)C)C(=O)N[C@H](C)C(=O)O [compound 243] (HELM PEPTIDE1{[dA].R.W.Q.E.A.G.Y.I.F.E.P.R.K.L.[dA]}$$$$V2.0) | 82.3
21 | CC[C@H](C)[C@@H]1NC(=O)[C@H](Cc2ccc(O)cc2)NC(=O)CNC(=O)[C@H](CCSC)NC(=O)[C@H](CCC(=O)O)NC(=O)[C@@H](NC(=O)[C@H](Cc2c[nH]c3ccccc23)NC(=O)[C@H](CCCNC(=N)N)NC(=O)[C@@H](N)CCSC)CCC(=O)NCCCC[C@@H](C(=O)N[C@@H](CCCNC(=N)N)C(=O)N[C@@H](CCCCN)C(=O)N[C@@H](CC(C)C)C(=O)N[C@@H](CCCNC(=N)N)C(=O)O)NC(=O)[C@H](Cc2ccc(O)cc2)NC(=O)[C@H](Cc2ccccc2)NC1=O [compound 223] (HELM PEPTIDE1{M.R.W.E.E.M.G.Y.I.F.Y.K.R.K.L.R}$PEPTIDE1,PEPTIDE1,4:R3-12:R3$$$V2.0) | 64.6
22 | Ac-LRWQEMGYIFYPLRKR-NH2 [compound 109] | 76.6
23 | H-MRWQEMGYIF-OH [compound 50] | 97.4
